Reference: patent US20140235863A1, “SUBSTITUTED 4-ARYLTHIAZOLES AND PROCESS OF PREPARATION THEREOF” (priority 2011, published 2014)
Converted amounts (≈) assume the structure as drawn. “And” between values parts separate entries of the source, which are not always exact repeats. Identical values can stand only once.

What was measured:
[1] = test system: replicating and nonreplicating Mtb; conditions: cited from earlier work
[2] = test system: M. tuberculosis H37Rv; assay: Agar dilution assay (ADA), MIC; assay type: cell-based, Mycobacterium tuberculosis; conditions: for MIC / Mtb H37Rv MIC: 37° C., 4 weeks; for MIC: read-out: Mtb H37Rv MIC; for anti-TB activity relative to the drug NTZ (times better / more potent): MIC compared with NTZ MIC 52.12 μM
[3] = test system: M. tuberculosis H37Rv; assay: BACTEC-460TB radiometric assay, MIC and growth index; assay type: cell-based, Mycobacterium tuberculosis; conditions: for Mtb growth inhibition, growth index (GI) vs days: day 1 to day 11, FIG. 5; for MIC: Mycobacterium tuberculosis, H37RV, BACTEC-460TB radiometric assay, read-out: Mtb H37Rv MIC (BACTEC)
[4] = Cytotoxicity, Resazurin assay; assay type: cell-based, monkey; conditions: monkey, Resazurin assay, 72 h; read-out: In vitro cytotoxicity Vero cells CC50
Description: (§1) Cytotoxicity Studies: The compounds for cytotoxicity were tested in an in vitro model for toxicity with Vero monkey kidney cells using Resazurin assay. […] Cells were exposed to dilutions of experimental and control drugs in triplicate for […] with each compound at a range of concentrations from 100-1.56 μg/ml. […] Each well had 100 μL of the test material in serially descending concentrations. After 72 h of incubation, 10 μL of Resazurin indicator solution (0.1%) was added and incubation was continued for 4-5 h. Any color change from purple to pink or colorless was recorded as positive. Fluorescence was measured of each sample with excitation wavelength at 530 nm and emission wavelength at 590 nm using the BMG Polar Star Galaxy. The CC50 values (50% inhibitory concentrations) were calculated by plotting fluorescence values using Microsoft excel template. The data from this toxicity testing and MIC values were used to calculate a selectivity index (SI), the ratio of CC50: MIC.

[5] = test system: Vero monkey kidney cells; assay: Cytotoxicity, Resazurin assay; assay type: cell-based; conditions: for cytotoxicity to Vero cells: FIG. 4; for selectivity index (SI): ratio CC50:MIC as stated in text b128 (fits BACTEC MIC); for SI (selectivity index): ratio CC50:MIC, Table 1 (agar dilution MIC)
Description: as §1

[6] = Mycobacterium tuberculosis, H37RV, 672 h

Compound	MIC [2, 6]	melting point [°C]	also measured
CC(=O)Oc1ccccc1C(=O)Nc1ncc([N+](=O)[O-])s1 [Nitazoxanide (NTZ), Nitazoxanide]	–	–	MIC ([1]; nonreplicating Mtb): 60.38 μM and 16 μg/mL
COc1cccc2c1CCCC2=NNc1nc(-c2ccc(F)cc2)cs1 [Compound 1c, 4-(4-fluorophenyl)-2-(2-(5-methoxy-3,4-dihydronaphthalen-1(2H)-ylidene)hydrazinyl)thiazole]	17 µM and 6.25 µg/mL	198	MIC ([2]; listed as is): 17.03 µM; Mtb growth inhibition, growth index (GI) vs days ([3]; 6.25 μM): comparatively lesser effective on day 10 onwards; MIC [3]: 6.25 µM (≈ 2.3 µg/mL); CC50 at 72 h [4]: > 244 µM; CC50 ([5]; Resazurin assay, 72 h, read-out: In vitro cytotoxicity Vero cells CC50): > 300 µM; cytotoxicity to Vero cells ([5]; Resazurin assay): failed to show any cytotoxicity; selectivity index (SI) [5]: ≥ 48; SI (selectivity index) [5]: ≧17
COc1ccc(-c2csc(Nc3ccccc3C(F)(F)F)n2)cc1OC [Compound 8a, 4-(3,4-dimethoxyphenyl)-N-(2-(trifluoromethyl)phenyl)thiazol-2-amine]	> 12.5 µg/mL	188	–
COc1cccc2c1CCCC2=NNc1nc(-c2ccc(Cl)cc2Cl)cs1 [Compound 1b, 4-(2,4-dichlorophenyl)-2-(2-(5-methoxy-3,4-dihydronaphthalen-1(2H)-ylidene)hydrazinyl)thiazole]	29.9 µM and 12.5 µg/mL	200	anti-TB activity relative to the drug NTZ (times better / more potent) [2]: about 2 times
COc1cccc2c1CCCC2=NNc1nc(-c2cccc([N+](=O)[O-])c2)cs1 [Compound 1d, 2-(2-(5-methoxy-3,4-dihydronaphthalen-1(2H)-ylidene)hydrazinyl)-4-(3-nitrophenyl)thiazole]	31.7 µM and 12.5 µg/mL	185	anti-TB activity relative to the drug NTZ (times better / more potent) [2]: about 2 times
COc1ccc(OC)c(Nc2nc(-c3cccc([N+](=O)[O-])c3)cs2)c1 [Compound 7b, N-(2,5-dimethoxyphenyl)-4-(3-nitrophenyl)thiazol-2-amine]	> 12.5 µg/mL	154	–
COc1ccc(-c2csc(Nc3cc(OC)ccc3OC)n2)cc1 [Compound 7c, N-(2,5-dimethoxyphenyl)-4-(4-methoxyphenyl)thiazol-2-amine]	> 12.5 µg/mL	104	–
NNC(=O)c1ccncc1 [Isoniazid (INH), Isoniazid, reference compound]	< 1 µg/mL	–	–
[H]/N=C(/N)N[C@H]1[C@H](O)[C@@H](O)[C@H](O[C@@H]2O[C@@H](C)[C@](O)(C=O)[C@H]2O[C@@H]2O[C@@H](CO)[C@H](O)[C@@H](O)[C@@H]2NC)[C@@H](N/C(N)=N\[H])[C@@H]1O [Streptomycin (SM), Streptomycin, reference compound]	–	–	MIC [3]: 6 µM (≈ 3.49 µg/mL)
COc1ccc(OC)c(Nc2nc(-c3ccc(F)cc3)cs2)c1 [Compound 7a, N-(2,5-dimethoxyphenyl)-4-(4-fluorophenyl)thiazol-2-amine]	> 12.5 µg/mL	160	–
Clc1ccc(Cn2cc(C=NNc3nc(-c4ccc(Cl)cc4Cl)cs3)c3ccccc32)c(Cl)c1 [Compound 2b, 2-(2-((1-(2,4-dichlorobenzyl)-1H-indol-3-yl)methylene)hydrazinyl)-4-(2,4-dichlorophenyl)thiazole]	22.9 µM and 12.5 µg/mL	185	–
Fc1ccc(-c2csc(NN=Cc3cn(Cc4ccc(Cl)cc4Cl)c4ccccc34)n2)cc1 [Compound 2c, 2-(2-((1-(2,4-dichlorobenzyl)-1H-indol-3-yl)methylene)hydrazinyl)-4-(4-fluorophenyl)thiazole]	> 12.5 µg/mL	198	Mtb H37Rv MIC [2]: >12.50 µg/mL
COc1ccc(-c2csc(NN=C3CCCc4c(OC)cccc43)n2)cc1OC [Compound 1a, 4-(3,4-dimethoxyphenyl)-2-(2-(5-methoxy-3,4-dihydronaphthalen-1(2H)-ylidene)hydrazinyl)-thiazole]	15.3 µM and 6.25 µg/mL	200	Mtb growth inhibition, growth index (GI) vs days ([3]; 6.25 μM): very effective for inhibiting the Mtb growth till day 11; MIC [3]: 6.25 µM (≈ 2.56 µg/mL); CC50 at 72 h [4]: > 244 µM; cytotoxicity to Vero cells ([5]; Resazurin assay): failed to show any cytotoxicity; selectivity index (SI) [5]: ≥ 39; SI (selectivity index) [5]: ≧16
Fc1ccc(-c2csc(Nc3ccccc3C(F)(F)F)n2)cc1 [Compound 8b, 4-(4-fluorophenyl)-N-(2-(trifluoromethyl)phenyl)thiazol-2-amine]	> 12.5 µg/mL	184	–
Fc1ccc(Nc2nc(-c3ccc(F)cc3)cs2)cc1 [Compound 6, N,4-bis(4-fluorophenyl)thiazol-2-amine]	6.25 µM and 1.8 µg/mL	127	anti-TB activity relative to the drug NTZ (times better / more potent) [2]: about 9 times; MIC [3]: 12.5 µM (≈ 3.6 µg/mL); Mtb growth inhibition, growth index (GI) vs days ([3]; ≧12.5 μM): effectively inhibit Mtb growth till day 11
COc1ccc(-c2csc(NN=Cc3cn(Cc4ccc(Cl)cc4Cl)c4ccccc34)n2)cc1OC [Compound 2a, 2-(2-((1-(2,4-dichlorobenzyl)-1H-indol-3-yl)methylene)hydrazinyl)-4-(3,4-dimethoxyphenyl)thiazole]	> 12.5 µg/mL	205	Mtb H37Rv MIC [2]: >12.50 µg/mL
O=C(Nc1ncc([N+](=O)[O-])s1)c1ccccc1O [Tizaxonide (TIZ), Tizaxonide]	–	–	MIC of reference NTZ/TIZ, Mtb H37Rv ([1]; replicating Mtb, literature value listed with the agar dilution data): 60.38 μM and 16.00 μg/mL
COc1ccc(-c2csc(Nc3ccccc3C(F)(F)F)n2)cc1 [Compound 8d, 4-(4-methoxyphenyl)-N-(2-(trifluoromethyl)phenyl)thiazol-2-amine]	> 12.5 µg/mL	–	–
O=[N+]([O-])c1cccc(-c2csc(Nc3ccccc3C(F)(F)F)n2)c1 [Compound 8c, 4-(3-nitrophenyl)-N-(2-(trifluoromethyl)phenyl)thiazol-2-amine]	> 12.5 µg/mL	182	–
